Measurements taken from PMC11858653, “Design, Synthesis and Bioactive Evaluation of Topo I/c-MYC Dual Inhibitors to Inhibit Oral Cancer via Regulating the PI3K/AKT/NF-κB Signaling Pathway” (Molecules, 2025).

How the values were obtained:
NCI-H460 = assay: MTT antiproliferative assay, NCI-H460; assay type: cell-based, human; settings: 48 h, mean ± SD
Method: (§1) Having evaluated their Topo I inhibitory activity, the antiproliferative activity of the target compounds against some common human cancer cell lines (NCI-H460, A549, ACHN, Cal27 and MGC-803) and one normal cell line (SV-HUC-1) was tested via an MTT assay. TPT, the first Topo I inhibitor approved in clinics, and cisplatin (CDDP), a commonly selected anticancer drug for treating head and neck malignancies, were used as the positive controls.
(§2) Human oral cancer Cal27 cells were seeded in 96-well plates and incubated overnight in 180 μL of medium containing 10% Fetal Bovine Serum (Gibco, San Francisco, CA, USA). […] Then, 10 μL of 5 mg/mL MTT solution was added to each well and incubated at 37 °C for 4 h. After 4 h of incubation at 37 °C, the MTT-containing medium was removed and DMSO was added to each well and the absorbance at 570 nm and 630 nm was measured using a microplate reader (CYTATION 3, Burton, Westwood, NJ, USA). Survival/% = (mean OD of experimental group/mean OD of control group) × 100%. Each test was repeated at least three times.

A549 = assay: MTT antiproliferative assay, A549; assay type: cell-based, human; settings: 48 h, mean ± SD
Method: as §1, §2

ACHN = assay: MTT antiproliferative assay, ACHN; assay type: cell-based, human; settings: 48 h, mean ± SD
Method: as §1, §2

Cal27 = assay: MTT antiproliferative assay, Cal27; assay type: cell-based, human; settings: 48 h, mean ± SD
Method: as §1, §2

MGC-803 = assay: MTT antiproliferative assay, MGC-803; assay type: cell-based, human; settings: 48 h, mean ± SD
Method: as §1, §2

[1] = test system: human oral cancer Cal27 xenograft tumor; assay: In vivo antitumor activity, Cal27 xenograft; parameters: species or system BALB/c nude mice; settings: 2 mg/kg i.p. once every other day, 21 days
Method: Nude mouse organ and tumor tissues fixed with neutral formalin solution were paraffin-embedded according to the conventional processing method. Sections were cut to a thickness of approximately 5 μm, placed on glass slides and dewaxed in an oven at 60 °C, stained for H&E and immunohistochemistry and finally visualized with the Cytation 5 imaging system.
For this assay, 130 SPF-grade BALB/c mice (female, 4–6 weeks old, 18–20 g) were obtained from Chang Zhou Cavens Laboratory Animal Ltd. (Changzhou, China). The in vivo activity experiments were commissioned by Nanjing OG Pharmaceuticals, Co., Ltd. (Nanjing, China) All mice were housed in plastic cages, fed, and watered under standard conditions and air filtration (22 ± 2 °C; 12 h light/dark cycles). Under aseptic conditions, human oral cancer Cal27 cells were inoculated subcutaneously in the right axilla of BALB/c nude mice. When the tumors had grown to about 85 mm^3, 24 […] mice with good growth status and good homogeneity of tumor size were selected and randomly divided into the following four groups of six mice each: (1) the model group; (2) the low-dose group; (3) the high-dose group; and (4) the positive drug group. The drug dose in the low-dose group was 10 mg/kg, which was injected intraperitoneally once every other day, for the duration of 21 days of administration; the drug dose in the high-dose group was 20 mg/kg, which was injected intraperitoneally once every other day, for the duration of 21 days of administration; and the drug dose in the cisplatin group was 2 mg/kg, which was injected intraperitoneally once every other day, for the duration of 21 days of administration. Normal tissues of the heart, liver, spleen, lung and kidney and half of the tumor tissues were fixed with 4% formalin solution and embedded in paraffin for histological analysis; the other half of the tumor tissues were preserved in liquid nitrogen, and the supernatant was extracted after milling the tissues and detected by Western blot.

Cal27 cells = assay: MTT cell survival with autophagy inhibitor CQ; assay type: cell-based, human; settings: Cal27, 20 μM alone
Method: Meanwhile, to further confirm that compound 7be could induce autophagic death in Cal27 cells, we used a classical autophagy inhibitor, chloroquine (CQ), to evaluate the role of autophagy in compound 7be-mix-induced cell death.
Human oral cancer Cal27 cells were seeded in 96-well plates and incubated overnight in 180 μL of medium containing 10% Fetal Bovine Serum (Gibco, San Francisco, CA, USA). On the following day, compounds at final concentrations of 2.5, 5, 10 and 20 μM were added to each well and incubated for 48 h. Then, 10 μL of 5 mg/mL MTT solution was added to each well and incubated at 37 °C for 4 h. After 4 h of incubation at 37 °C, the MTT-containing medium was removed and DMSO was added to each well and the absorbance at 570 nm and 630 nm was measured using a microplate reader (CYTATION 3, Burton, Westwood, NJ, USA). Survival/% = (mean OD of experimental group/mean OD of control group) × 100%. Each test was repeated at least three times.

| IC50 (NCI-H460) [µM] | IC50 (A549) [µM] | IC50 (ACHN) [µM] | IC50 (MGC-803) [µM] | Compound | IC50 (Cal27) [µM] | relative tumor proliferation rate [1] [%] | tumor inhibition rate / tumor growth inhibition (TGI) [1] [%] | tumor inhibition rate / tumor growth inhibition (TGI) ([1]; listed as cisplatin) [%] | cell survival rate versus control group (Cal27 cells; 24 h) | cell survival rate (Cal27 cells; 48 h) |
| --- | --- | --- | --- | --- | --- | --- | --- | --- | --- | --- |
| 12.2 ± 1.01 | 8.69 ± 1.05 | 12.4 ± 1.31 | 12.3 ± 0.8 | [NH2][Pt]([NH2])([Cl])[Cl] [CDDP, cisplatin, reference compound] | 8.81 ± 1.73 | 39.8 | 59.44 | 59.4 | – | – |
| – | – | – | – | CCN(CC)CCCC(C)Nc1ccnc2cc(Cl)ccc12 (stereo not shown) [CQ, chloroquine] | – | – | – | – | not significantly different | more than 80% |
